Measured values reported in ChEMBL document CHEMBL1153480, “Study on the potential anti-cancer activity of phosphonium and ammonium-based ionic liquids” (2009).

Columns and labels:
Assay type in all cases: functional
SNB-75 [1] = assay: cells; settings: Homo sapiens
Description: Growth inhibition of human SNB75 cells assessed as drug level required for 50% reduction in net protein increase by SRB assay relative to control

U-251 [2] = assay: cells; settings: Homo sapiens
Description: Growth inhibition of human U251 cells assessed as drug level required for 50% reduction in net protein increase by SRB assay relative to control

LOX IMVI [3] = assay: cells; settings: Homo sapiens
Description: Growth inhibition of human LOXIMVI cells assessed as drug level required for 50% reduction in net protein increase by SRB assay relative to control

M14 = assay: cells; settings: Homo sapiens
Description: Growth inhibition of human M14 cells assessed as drug level required for 50% reduction in net protein increase by SRB assay relative to control

SK-MEL-2 = assay: cells; settings: Homo sapiens
Description: Growth inhibition of human SK-MEL-2 cells assessed as drug level required for 50% reduction in net protein increase by SRB assay relative to control

SK-MEL-28 [4] = assay: cells; settings: Homo sapiens
Description: Growth inhibition of human SK-MEL-28 cells assessed as drug level required for 50% reduction in net protein increase by SRB assay relative to control

UACC-257 [5] = assay: cells; settings: Homo sapiens
Description: Growth inhibition of human UACC257 cells assessed as drug level required for 50% reduction in net protein increase by SRB assay relative to control

IGROV-1 = assay: cells; settings: Homo sapiens
Description: Growth inhibition of human IGROV1 cells assessed as drug level required for 50% reduction in net protein increase by SRB assay relative to control

OVCAR-3 [6] = assay: cells; settings: Homo sapiens
Description: Growth inhibition of human OVCAR-3 cells assessed as drug level required for 50% reduction in net protein increase by SRB assay relative to control

OVCAR-5 [7] = assay: cells; settings: Homo sapiens
Description: Growth inhibition of human OVCAR5 cells assessed as drug level required for 50% reduction in net protein increase by SRB assay relative to control

OVCAR-8 [8] = assay: cells; settings: Homo sapiens
Description: Growth inhibition of human OVCAR8 cells assessed as drug level required for 50% reduction in net protein increase by SRB assay relative to control

786-0 [9] = assay: cells; settings: Homo sapiens
Description: Growth inhibition of human 786-0 cells assessed as drug level required for 50% reduction in net protein increase by SRB assay relative to control

A498 = assay: cells; settings: Homo sapiens
Description: Growth inhibition of human A498 cells assessed as drug level required for 50% reduction in net protein increase by SRB assay relative to control

SN12C [10] = assay: cells; settings: Homo sapiens
Description: Growth inhibition of human SN12C cells assessed as drug level required for 50% reduction in net protein increase by SRB assay relative to control

PC-3 [11] = assay: cells; settings: Homo sapiens
Description: Growth inhibition of human PC3 cells assessed as drug level required for 50% reduction in net protein increase by SRB assay relative to control

NCI/ADR-RES [12] = assay: cells; settings: Homo sapiens
Description: Growth inhibition of human NCI/ADR-RES cells assessed as drug level required for 50% reduction in net protein increase by SRB assay relative to control

MDA-MB-231 = assay: cells; settings: Homo sapiens
Description: Growth inhibition of human MDA-MB-231 cells assessed as drug level required for 50% reduction in net protein increase by SRB assay relative to control

MOLT-4 [13] = assay: Cytotoxicity against human MOLT4 cells by SRB assay; settings: read-out: LC50 (the source's name)
A549 [14] = assay: Cytotoxicity against human A549 cells by SRB assay; settings: read-out: LC50 (the source's name)
NCI-H23 [15] = assay: Cytotoxicity against human NCI-H23 cells by SRB assay; settings: read-out: LC50 (the source's name)
NCI-H460 [16] = assay: Cytotoxicity against human NCI-H460 cells by SRB assay; settings: read-out: LC50 (the source's name)
COLO 205 [17] = assay: Cytotoxicity against human COLO205 cells by SRB assay; settings: read-out: LC50 (the source's name)
HCC 2998 [18] = assay: Cytotoxicity against human HCC2998 cells by SRB assay; settings: read-out: LC50 (the source's name)
HT-29 = assay: Cytotoxicity against human HT-29 cells by SRB assay; settings: read-out: LC50 (the source's name)
SW-620 [19] = assay: Cytotoxicity against human SW620 cells by SRB assay; settings: read-out: LC50 (the source's name)
SF-268 = assay: Cytotoxicity against human SF268 cells by SRB assay; settings: read-out: LC50 (the source's name)
SF-295 [20] = assay: Cytotoxicity against human SF295 cells by SRB assay; settings: read-out: LC50 (the source's name)
SNB-19 = assay: Cytotoxicity against human SNB19 cells by SRB assay; settings: read-out: LC50 (the source's name)
SK-MEL-28 [21] = assay: Cytotoxicity against human SK-MEL-28 cells by SRB assay; settings: read-out: LC50 (the source's name)
786-0 [22] = assay: cells; settings: Homo sapiens, read-out: LC50 (the source's name)
Description: Cytotoxicity against human 786-0 cells by SRB assay

SN12C [23] = assay: cells; settings: Homo sapiens; remark: listed apart in the source
Description: Growth inhibition of human SN12C cells assessed as cell growth at 10 uM by SRB assay

PC-3 [24] = assay: cells; settings: Homo sapiens; remark: listed apart in the source
Description: Growth inhibition of human PC3 cells assessed as cell growth at 10 uM by SRB assay

NCI/ADR-RES [25] = assay: cells; settings: Homo sapiens; remark: listed apart in the source
Description: Growth inhibition of human NCI/ADR-RES cells assessed as cell growth at 10 uM by SRB assay

MDA-MB-435 [26] = assay: cells; settings: Homo sapiens
Description: Growth inhibition of human MDA-MB-435 cells assessed as cell growth at 10 uM by SRB assay

HCT-15 = assay: cells; settings: Homo sapiens
Description: Growth inhibition of human HCT15 cells assessed as drug level required for 50% reduction in net protein increase by SRB assay relative to control

COLO 205 [27] = assay: cells; settings: Homo sapiens
Description: Growth inhibition of human COLO205 cells assessed as drug level required for 50% reduction in net protein increase by SRB assay relative to control

NCI-H522 = assay: cells; settings: Homo sapiens
Description: Growth inhibition of human NCI-H522 cells assessed as drug level required for 50% reduction in net protein increase by SRB assay relative to control

NCI-H460 [28] = assay: cells; settings: Homo sapiens
Description: Growth inhibition of human NCI-H460 cells assessed as drug level required for 50% reduction in net protein increase by SRB assay relative to control

PC-3 [29] = assay: Cytotoxicity against human PC3 cells by SRB assay; settings: read-out: LC50 (the source's name)
cells = settings: Homo sapiens, Hs-578T; read-out: LC50 (the source's name)
Description: Cytotoxicity against human Hs 578T cells by SRB assay

MDA-MB-435 [30] = assay: Cytotoxicity against human MDA-MB-435 cells by SRB assay; settings: read-out: LC50 (the source's name)
T47D = assay: Cytotoxicity against human T47D cells by SRB assay; settings: read-out: LC50 (the source's name)
SR = assay: cells; settings: Homo sapiens
Description: Growth inhibition of human SR cells assessed as cell growth at 10 uM by SRB assay

A549 [31] = assay: cells; settings: Homo sapiens
Description: Growth inhibition of human A549 cells assessed as cell growth at 10 uM by SRB assay

HOP-62 = assay: cells; settings: Homo sapiens
Description: Growth inhibition of human HOP62 cells assessed as cell growth at 10 uM by SRB assay

HOP-92 = assay: cells; settings: Homo sapiens
Description: Growth inhibition of human HOP92 cells assessed as cell growth at 10 uM by SRB assay

NCI-H23 [32] = assay: cells; settings: Homo sapiens
Description: Growth inhibition of human NCI-H23 cells assessed as cell growth at 10 uM by SRB assay

NCI-H322M = assay: cells; settings: Homo sapiens
Description: Growth inhibition of human NCI-H322M cells assessed as cell growth at 10 uM by SRB assay

NCI-H460 [33] = assay: cells; settings: Homo sapiens; remark: listed apart in the source
Description: Growth inhibition of human NCI-H460 cells assessed as cell growth at 10 uM by SRB assay

COLO 205 [34] = assay: cells; settings: Homo sapiens; remark: listed apart in the source
Description: Growth inhibition of human COLO205 cells assessed as cell growth at 10 uM by SRB assay

HCC 2998 [35] = assay: cells; settings: Homo sapiens
Description: Growth inhibition of human HCC2998 cells assessed as cell growth at 10 uM by SRB assay

HCT-116 = assay: cells; settings: Homo sapiens
Description: Growth inhibition of human HCT116 cells assessed as cell growth at 10 uM by SRB assay

KM12 = assay: cells; settings: Homo sapiens
Description: Growth inhibition of human KM12 cells assessed as cell growth at 10 uM by SRB assay

SW-620 [36] = assay: cells; settings: Homo sapiens
Description: Growth inhibition of human SW620 cells assessed as cell growth at 10 uM by SRB assay

SF-295 [37] = assay: cells; settings: Homo sapiens
Description: Growth inhibition of human SF295 cells assessed as cell growth at 10 uM by SRB assay

NCI-H23 [38] = assay: cells; settings: Homo sapiens; remark: listed apart in the source
Description: Growth inhibition of human NCI-H23 cells assessed as drug level required for 50% reduction in net protein increase by SRB assay relative to control

EKVX = assay: cells; settings: Homo sapiens
Description: Growth inhibition of human EKVX cells assessed as drug level required for 50% reduction in net protein increase by SRB assay relative to control

A549 [39] = assay: cells; settings: Homo sapiens; remark: listed apart in the source
Description: Growth inhibition of human A549 cells assessed as drug level required for 50% reduction in net protein increase by SRB assay relative to control

RPMI-8226 = assay: cells; settings: Homo sapiens
Description: Growth inhibition of human RPMI8226 cells assessed as drug level required for 50% reduction in net protein increase by SRB assay relative to control

MOLT-4 [40] = assay: cells; settings: Homo sapiens
Description: Growth inhibition of human MOLT4 cells assessed as drug level required for 50% reduction in net protein increase by SRB assay relative to control

SF-295 [41] = assay: cells; settings: Homo sapiens; remark: listed apart in the source
Description: Growth inhibition of human SF295 cells assessed as drug level required for 50% reduction in net protein increase by SRB assay relative to control

MDA-MB-468 = assay: cells; settings: Homo sapiens
Description: Growth inhibition of human MDA-MB-468 cells assessed as cell growth at 10 uM by SRB assay

SNB-75 [42] = assay: cells; settings: Homo sapiens; remark: listed apart in the source
Description: Growth inhibition of human SNB75 cells assessed as cell growth at 10 uM by SRB assay

U-251 [43] = assay: cells; settings: Homo sapiens; remark: listed apart in the source
Description: Growth inhibition of human U251 cells assessed as cell growth at 10 uM by SRB assay

LOX IMVI [44] = assay: cells; settings: Homo sapiens; remark: listed apart in the source
Description: Growth inhibition of human LOXIMVI cells assessed as cell growth at 10 uM by SRB assay

UACC-257 [45] = assay: cells; settings: Homo sapiens; remark: listed apart in the source
Description: Growth inhibition of human UACC257 cells assessed as cell growth at 10 uM by SRB assay

OVCAR-3 [46] = assay: cells; settings: Homo sapiens; remark: listed apart in the source
Description: Growth inhibition of human OVCAR-3 cells assessed as cell growth at 10 uM by SRB assay

OVCAR-4 = assay: cells; settings: Homo sapiens
Description: Growth inhibition of human OVCAR4 cells assessed as cell growth at 10 uM by SRB assay

OVCAR-5 [47] = assay: cells; settings: Homo sapiens; remark: listed apart in the source
Description: Growth inhibition of human OVCAR5 cells assessed as cell growth at 10 uM by SRB assay

OVCAR-8 [48] = assay: cells; settings: Homo sapiens; remark: listed apart in the source
Description: Growth inhibition of human OVCAR8 cells assessed as cell growth at 10 uM by SRB assay

SK-OV-3 = assay: cells; settings: Homo sapiens
Description: Growth inhibition of human SKOV3 cells assessed as cell growth at 10 uM by SRB assay

With CCCCCCCCCCCCCCCCCCPCCCCCCCCCCCCCC.O=S(=O)(NS(=O)(=O)C(F)(F)F)C(F)(F)F (stereo unspecified) the GI50 (SNB-75 [1]) was 0.076 µM, the GI50 (U-251 [2]) was 0.041 µM and the GI50 (LOX IMVI [3]) was 0.058 µM. The GI50 (M14) was 0.052 µM, the GI50 (SK-MEL-2) was 0.027 µM and the GI50 (SK-MEL-28 [4]) was 0.207 µM. The GI50 (UACC-257 [5]) was 0.103 µM, the GI50 (IGROV-1) was 0.071 µM and the GI50 (OVCAR-3 [6]) was 0.051 µM. The GI50 (OVCAR-5 [7]) was 0.318 µM, the GI50 (OVCAR-8 [8]) was 0.086 µM and the GI50 (786-0 [9]) was 0.253 µM. For the same compound, the GI50 (A498) was 0.31 µM, the GI50 (SN12C [10]) was 0.042 µM and the GI50 (PC-3 [11]) was 0.045 µM. For the same compound, the GI50 (NCI/ADR-RES [12]) was 0.73 µM, the GI50 (MDA-MB-231) was 0.056 µM and the CC50 (MOLT-4 [13]) was > 100 µM. The CC50 (A549 [14]) was > 100 µM, the CC50 (NCI-H23 [15]) was > 100 µM and the CC50 (NCI-H460 [16]) was > 100 µM. For the same compound, the CC50 (COLO 205 [17]) was > 100 µM, the CC50 (HCC 2998 [18]) was > 100 µM and the CC50 (HT-29) was > 100 µM. For the same compound, the CC50 (SW-620 [19]) was > 100 µM, the CC50 (SF-268) was > 100 µM and the CC50 (SF-295 [20]) was > 100 µM. For the same compound, the CC50 (SNB-19) was > 100 µM, the CC50 (SK-MEL-28 [21]) was 6.59 µM and the CC50 (786-0 [22]) was > 100 µM. For the same compound, the growth at 10 µM (SN12C [23]) was -79.1%, the growth at 10 µM (PC-3 [24]) was -78.1% and the growth at 10 µM (NCI/ADR-RES [25]) was -10.5%. The growth at 10 µM (MDA-MB-435 [26]) was -81%, the GI50 (HCT-15) was 0.291 µM and the GI50 (COLO 205 [27]) was 0.182 µM. For the same compound, the GI50 (NCI-H522) was 0.105 µM, the GI50 (NCI-H460 [28]) was 0.315 µM and the CC50 (PC-3 [29]) was 5.9 µM. The CC50 (cells) was > 100 µM, the CC50 (MDA-MB-435 [30]) was 19.8 µM and the CC50 (T47D) was > 100 µM. The growth at 10 µM (SR) was 62.4%, the growth at 10 µM (A549 [31]) was -35% and the growth at 10 µM (HOP-62) was -2.18%. The growth at 10 µM (HOP-92) was -67.1%, the growth at 10 µM (NCI-H23 [32]) was -39.3% and the growth at 10 µM (NCI-H322M) was -11.9%. It also gave a growth at 10 µM (NCI-H460 [33]) of -59.4%, a growth at 10 µM (COLO 205 [34]) of -65.4% and a growth at 10 µM (HCC 2998 [35]) of -24.4%. It also gave a growth at 10 µM (HCT-116) of -70.8%, a growth at 10 µM (KM12) of -100% and a growth at 10 µM (SW-620 [36]) of -86.3%. The growth at 10 µM (SF-295 [37]) was -68.4%, the GI50 (NCI-H23 [38]) was 0.192 µM and the GI50 (EKVX) was 0.123 µM. It also gave a GI50 (A549 [39]) of 0.292 µM, a GI50 (RPMI-8226) of 0.016 µM and a GI50 (MOLT-4 [40]) of 0.069 µM. It also gave a GI50 (SF-295 [41]) of 0.205 µM, a growth at 10 µM (MDA-MB-468) of -88.3% and a growth at 10 µM (SNB-75 [42]) of -31.4%. It also gave a growth at 10 µM (U-251 [43]) of -68.4%, a growth at 10 µM (LOX IMVI [44]) of -68.5% and a growth at 10 µM (UACC-257 [45]) of -34.6%. For the same compound, the growth at 10 µM (OVCAR-3 [46]) was -100%, the growth at 10 µM (OVCAR-4) was -91.8% and the growth at 10 µM (OVCAR-5 [47]) was -7.29%. The growth at 10 µM (OVCAR-8 [48]) was -79.9% and the growth at 10 µM (SK-OV-3) was -3.34%.
